The target of one experiment is T1, D(4) dopamine receptor (Homo sapiens, UniProt P21917).
T1 sequence (P21917 whole entry): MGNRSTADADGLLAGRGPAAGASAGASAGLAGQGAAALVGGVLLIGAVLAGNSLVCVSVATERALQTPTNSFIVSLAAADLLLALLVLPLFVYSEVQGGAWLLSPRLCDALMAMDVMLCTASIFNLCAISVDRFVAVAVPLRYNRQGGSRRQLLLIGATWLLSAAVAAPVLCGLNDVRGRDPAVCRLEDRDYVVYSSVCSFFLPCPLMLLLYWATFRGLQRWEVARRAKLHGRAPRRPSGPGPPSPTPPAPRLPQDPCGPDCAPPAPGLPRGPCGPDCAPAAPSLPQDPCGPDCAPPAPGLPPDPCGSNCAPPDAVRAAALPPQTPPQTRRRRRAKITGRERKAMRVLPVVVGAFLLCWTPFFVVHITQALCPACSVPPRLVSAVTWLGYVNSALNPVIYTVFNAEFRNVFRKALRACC

Another experiment addresses D(2) dopamine receptor (Homo sapiens, UniProt P14416).

This is an account of results in BindingDB's records for doi:10.1016/0014-2999(93)90488-4 (Maryland Psychiatric Research Center, 1993).

Sequence of D(2) dopamine receptor (P14416 whole entry): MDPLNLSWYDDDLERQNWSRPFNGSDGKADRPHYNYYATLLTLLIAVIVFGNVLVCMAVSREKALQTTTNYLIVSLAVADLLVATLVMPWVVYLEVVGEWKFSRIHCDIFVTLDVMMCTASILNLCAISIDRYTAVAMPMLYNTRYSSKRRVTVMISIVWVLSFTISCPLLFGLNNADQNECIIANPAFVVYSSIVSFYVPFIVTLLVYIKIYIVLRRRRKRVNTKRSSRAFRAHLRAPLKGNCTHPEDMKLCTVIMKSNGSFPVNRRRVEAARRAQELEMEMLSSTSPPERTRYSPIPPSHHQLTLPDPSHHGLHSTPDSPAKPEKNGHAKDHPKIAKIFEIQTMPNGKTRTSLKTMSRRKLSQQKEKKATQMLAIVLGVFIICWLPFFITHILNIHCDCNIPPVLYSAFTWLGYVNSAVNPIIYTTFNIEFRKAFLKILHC

Take `CN1CCN(C2=Nc3ccccc3Oc3ccc(Cl)cc32)CC1` [13-chloro-10-(4-methylpiperazin-1-yl)-2-oxa-9-azatricyclo[9.4.0.0^{3,8}]pentadeca-1(11),3,5,7,9,12,14-heptaene]: on D(4) dopamine receptor, the Ki is 29 nM.

On to `CCCOc1ccc2nc(NC(=O)OC)[nH]c2c1` [SMR000058208], for which the Ki on D(4) dopamine receptor was 152 nM.

For the molecule `CN1C[C@@H](NC(=O)C(C)(C)C)CC2c3cccc4[nH]c(Cl)c(c34)C[C@H]21` (some centres not stated) [SDZ-208-912], the Ki turned out to be 3.5 nM on D(4) dopamine receptor and 0.9 nM at D(2) dopamine receptor.

The molecule `CCCN1CCCC(c2cccc(O)c2)C1` (configuration not stated) [CAS_85976-54-1] yielded a Ki on D(4) dopamine receptor of 546 nM.

Take `CCCN(CCC)C1C=Cc2c(OC)cccc2C1C` (configuration not stated) [CAS_5311190]: the values for the Ki on D(4) dopamine receptor and at D(2) dopamine receptor were 66.5 nM and 29.4 nM, respectively.

At D(4) dopamine receptor, `CC1CCN(CCCC(=O)c2ccc(F)cc2)CC1` [CAS_3575-80-2] yielded a Ki of 139 nM.

As for `CCN(CC)C(=O)N[C@H]1C[C@@H]2c3cccc4[nH]cc(c34)C[C@H]2N(C)C1`, the results for the Ki at D(4) dopamine receptor and on D(2) dopamine receptor were 5.2 nM and 0.7 nM, respectively.

On D(2) dopamine receptor, `CN1CCN(CCCN2c3ccccc3Sc3ccc(C(F)(F)F)cc32)CC1` gave an inhibitory constant (Ki) of 1.1 nM.

With `CCCN[C@@H]1CCc2c(OC)cccc2[C@@H]1C`, the figures for the Ki on D(4) dopamine receptor and at D(2) dopamine receptor were 132 nM and 120 nM, respectively.

`CCN1CCC[C@H]1CNC(=O)c1c(O)c(Cl)cc(Cl)c1OC` [3,5-Dichloro-N-(1-ethyl-pyrrolidin-2-ylmethyl)-2-hydroxy-6-methoxy-benzamide (raclopride)] returned a Ki on D(4) dopamine receptor of 1340 nM.

Regarding `O=C(O)c1ccccc1C(=O)Nc1cccc2ccccc12` [NPA,(+)], the Ki at D(4) dopamine receptor is 120 nM; on D(2) dopamine receptor it was 291 nM.

The molecule `CSc1ccc2c(c1)N(CC[C@@H]1CCCCN1C)c1ccccc1S2` [10-[2-(1-Methyl-piperidin-2-yl)-ethyl]-2-methylsulfanyl-10H-phenothiazine (thioridazine)] returned a Ki at D(4) dopamine receptor of 22.9 nM.
